Experimental data as given in patent publication US20240285670A1, “THERAPEUTIC TREATMENT OF TUMORS BY BLOCKING THE HEME SYNTHESIS-EXPORT AXIS” (Università degli Studi di Torino, priority 2021, published 2024).

Legend:
tumor cell = details: background art; cited from earlier work
lung tumor LLC cells = test: LLC cell viability (CellTiter-Fluor) as readout of proliferation; type: cell-based, murine; details: 0.5 mM SA at day 0, no medium refresh
[1] = tested on: FLVCR1a-overexpressing Caco2 cells; test: TCA cycle flux in Caco2 cells overexpressing FLVCR1a; type: cell-based, human
Procedure: (A) TCA cycle flux in Caco2 cells expressing a scramble shRNA untreated or treated with 25 μM hemin for 2 hours. Moreover, the TCA cycle flux of untreated FLVCR1a-silenced Caco2 cells is reported for comparison. Results are expressed as pmol CO2/h/mg protein. Data represent mean±SEM, n=3. For statistical analyses, an unpaired Student's t-test was used to compare the two matched groups; *=p<0.05, ***=p<0.001. […] Results are expressed as pmol CO2/h/mg protein. Data represent mean±SEM, n=3. For statistical analyses, an unpaired Student's t-test was used; *=p<0.05, **=p<0.01. (C) TCA cycle flux in Caco2 cells overexpressing FLVCR1a (indicated as FLVCR1a+) are compared to cells stably transduced with an empty vector. Moreover, the TCA cycle flux of FLVCR1a-overexpressing Caco2 cells treated with 25 μM hemin or 0.5 mM SA for 2 hours is reported. Results are expressed as pmol CO2/h/mg protein. Data represent mean±SEM, n=3. For statistical analyses, an unpaired Student's t-test was used to compare the two matched groups; *=p<0.05, **=p<0.01. SA, succinylacetone. […]
(§1) The glucose flux through TCA cycle was measured by radiolabeling cells with 2 μCi/ml [6-^14C]-glucose (55 mCi/mmol; PerkinElmer, Waltham, MA, USA, catalog n° NEC045X). […] The amount of glucose transformed into CO2 through the TCA cycle was calculated as described (Riganti et al., 2004) and expressed as pmoles CO2/h/mg cell proteins.

Caco2 cells [2] = test: Heme content (fluorescence assay) in Caco2 cells; type: cell-based, human; details: FLVCR1a-silenced Caco2 cells, 5 mM 5-ALA+0.5 mM SA
Procedure: (A) Heme content in Caco2 cells treated with 5 mM 5-ALA (black bars and white bars) or with 5 mM 5-ALA+0.5 mM SA (light grey outlined bars) for the indicated time points. […] Values are expressed as relative fluorescence intensity. Data represent mean±SEM, n=2. For statistical analyses, a two-way analysis of variance was used, followed by the Bonferroni correction for multiple group comparisons; **=p<0.01, ***=p<0.001. 5-ALA, 5-aminolevulinic acid; SA, succinylacetone. (B) Intracellular 5-ALA levels. […] Values are expressed as peak area/μg proteins. Data represent mean±SEM of n=4 wells pooled from two independent experiments. For statistical analyses, an unpaired Student's t-test was used; **=p<0.01. 5-ALA, 5-aminolevulinic acid. […] Values are expressed as peak area/μg proteins. […] Transcript abundance, normalized to beta-actin mRNA expression, is expressed as a fold increase over a calibrator sample. […] Band intensities were measured by densitometry and normalized to vinculin expression. […]
Intracellular heme concentration was measured using a fluorescence assay, as previously reported (Sinclair et al., 2001). […] Fluorescence (wavelength: excitation 405 nm-emission 660-720 nm) of the resultant protoporphyrin was assessed on a Glomax Multi Detection System (Promega Corporation, Madison WI, USA).
The endogenous protoporphyrin content (measured in parallel unheated samples in oxalic acid) was subtracted. […]

Caco2 cells [3] = test: TCA cycle flux in Caco2 cells; type: cell-based, human; details: control (scramble shRNA) Caco2 cells, 25 μM hemin for 2 hours
From the text: TCA cycle flux is reported in the centre of the figure and expressed as pmol CO2/h/mg protein. Data represent mean±SEM, n=3. For statistical analyses, an unpaired Student's t-test was used. **=p<0.01. Moreover, TCA cycle enzymes activities are reported in boxes and expressed as mU/mg mitochondrial proteins. Data represent mean±SEM, n=3. For statistical analyses, an unpaired Student's t-test was used; *=p<0.05, ***=p<0.001. […] Results are expressed as pmol CO2/h/mg protein. Data represent mean±SEM, n=3. For statistical analyses, an unpaired Student's t-test was used; *=p<0.05, **=p<0.01.
(A) TCA cycle flux in Caco2 cells expressing a scramble shRNA untreated or treated with 25 μM hemin for 2 hours. Moreover, the TCA cycle flux of untreated FLVCR1a-silenced Caco2 cells is reported for comparison. Results are expressed as pmol CO2/h/mg protein. Data represent mean±SEM, n=3. […] Results are expressed as pmol CO2/h/mg protein. […] Results are expressed as pmol CO2/h/mg protein. […]
as §1

CC(=O)CC(=O)CCC(=O)O [SA, 4-6 Dioxoheptanoic acid]
tumor cell survival and proliferation (tumor cell): reduce tumor cell survival and proliferation | cell proliferation (cell viability) (lung tumor LLC cells): effects on cell proliferation were similar | reduction of the TCA cycle flux in FLVCR1a-overexpressing cells ([1]; 0.5 mM SA for 2 hours): reverted | accumulation of de-novo synthesized heme (Caco2 cells [2]): blunted

Hemin Ferriprotoporphyrin IX chloride [reference compound]
TCA cycle flux (Caco2 cells [3]): increased TCA cycle flux | reduction of the TCA cycle flux in FLVCR1a-overexpressing cells ([1]; 25 μM hemin for 2 hours): reverted
